# Laboratory results published in patent US20060063766A1, “Use of aryl- and heteroaryl-substituted tetrahydroisoquinolines to block reuptake of norepinephrine, dopamine, and serotonin” (priority 2004, published 2006).
# Counter-ions that a name gives are not always drawn.
# Experiments:
# DAT = biological target: T1, DAT (Homo sapiens, UniProt Q01959); assay: biochemical; type: binding; conditions: for inhibition at 0.1 µM: read-out: % inhibition at 100 nM concentration of test compound, DAT
# T1 construct: cDNAs containing the complete coding regions of each transporter were amplified by PCR from human brain libraries; expressed in transfected cells; host or cells: HEK293E
# SERT = SERT (Homo sapiens, UniProt P31645); assay: biochemical; conditions: for inhibition at 0.1 µM: read-out: % inhibition at 100 nM concentration of test compound, SERT
# [1] = system: tetrabenazine-induced exploratory loss and ptosis in mice; assay: Tetrabenazine assay; conditions: mouse; result in words
# [2] = in a very small number of patients; cited from earlier work
# dopamine transporter = dopamine transporter (Homo sapiens, UniProt Q01959); conditions: cited from earlier work
# dopamine transporter, sequence (Q01959 whole entry): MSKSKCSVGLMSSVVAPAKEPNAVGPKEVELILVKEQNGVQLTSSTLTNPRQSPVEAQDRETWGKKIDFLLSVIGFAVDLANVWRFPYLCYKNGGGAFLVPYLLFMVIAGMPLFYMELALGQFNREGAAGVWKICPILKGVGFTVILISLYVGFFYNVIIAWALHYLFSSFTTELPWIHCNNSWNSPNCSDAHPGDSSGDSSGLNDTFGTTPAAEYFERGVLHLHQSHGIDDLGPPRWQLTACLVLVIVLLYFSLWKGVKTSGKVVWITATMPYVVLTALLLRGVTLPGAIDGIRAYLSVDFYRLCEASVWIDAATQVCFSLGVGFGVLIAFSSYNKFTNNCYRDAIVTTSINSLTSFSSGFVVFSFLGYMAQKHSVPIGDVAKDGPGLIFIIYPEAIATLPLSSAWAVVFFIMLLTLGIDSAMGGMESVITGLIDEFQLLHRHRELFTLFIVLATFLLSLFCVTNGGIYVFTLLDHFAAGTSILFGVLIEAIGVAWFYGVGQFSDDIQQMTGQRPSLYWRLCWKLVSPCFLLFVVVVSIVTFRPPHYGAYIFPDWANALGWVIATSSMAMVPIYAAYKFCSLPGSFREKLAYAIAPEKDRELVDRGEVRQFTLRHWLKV
# SERT, sequence (P31645 whole entry): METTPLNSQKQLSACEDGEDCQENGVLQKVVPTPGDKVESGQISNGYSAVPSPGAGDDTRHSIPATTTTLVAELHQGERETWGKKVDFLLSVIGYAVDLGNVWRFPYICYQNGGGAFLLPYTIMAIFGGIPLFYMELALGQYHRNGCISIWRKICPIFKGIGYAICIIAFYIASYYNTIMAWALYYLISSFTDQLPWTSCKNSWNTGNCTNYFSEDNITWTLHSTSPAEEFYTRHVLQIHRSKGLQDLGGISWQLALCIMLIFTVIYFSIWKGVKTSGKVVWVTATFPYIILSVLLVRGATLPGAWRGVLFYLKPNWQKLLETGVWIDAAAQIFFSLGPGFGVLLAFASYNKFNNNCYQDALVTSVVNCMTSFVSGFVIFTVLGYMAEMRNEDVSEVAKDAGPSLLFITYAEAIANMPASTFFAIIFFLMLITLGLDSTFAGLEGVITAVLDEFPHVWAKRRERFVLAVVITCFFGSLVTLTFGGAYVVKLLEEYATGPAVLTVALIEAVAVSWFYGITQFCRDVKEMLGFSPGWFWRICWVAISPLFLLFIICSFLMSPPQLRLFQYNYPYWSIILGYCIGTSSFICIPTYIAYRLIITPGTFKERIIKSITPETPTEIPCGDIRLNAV
# T1 sequence (Q01959 whole entry): as the sequence (Q01959 whole entry) above
SMILES,melting point [°C],Ki (SERT) [nM],also measured
CN1Cc2ccccc2C(c2ccc3c(ccn3Cc3ccccc3)c2)C1 (racemic) (as salt: maleate),81 to 85,–,–
Cc1noc(C)c1-c1ccc2c(c1)CN(C)CC2c1cc2ccccc2s1 (racemic) (as salt: maleate),92 to 95,–,–
CN1Cc2cc(N3CCCC3)ccc2C(c2cc3ccccc3s2)C1 (racemic) (as salt: maleate),105 to 108,–,–
CN1Cc2cc(-c3cccnn3)ccc2C(c2cccc3sccc23)C1 (racemic) (as salt: maleate),94 to 97,–,–
"CN1Cc2cc(-c3cnccn3)ccc2C(c2cc3ccccc3s2)C1 (racemic) (as salt: maleate) [Example 71, (±)-4-(benzo[b]thiophen-2-yl)-2-methyl-7-(pyrazin-2-yl)-1,2,3,4-tetrahydroisoquinoline]",102 to 105,–,–
"CN1Cc2cc(-c3cncnc3)ccc2C(c2cc3ccccc3s2)C1 (racemic) (as salt: maleate) [Example 73, (±)-4-(benzo[b]thiophen-2-yl)-2-methyl-7-(pyrimidin-5-yl)-1,2,3,4-tetrahydroisoquinoline]",103 to 107,–,–
"Cc1noc(C)c1-c1ccc2c(c1)CN(C)CC2c1ccc2ccccc2c1 (racemic) (as salt: maleate) [Example 142, (±)-7-(3,5-dimethyl-isoxazol-4-yl)-2-methyl-4-napthalen-2-yl-1,2,3,4-tetrahydroisoquinoline, maleate salt]",88 to 90,–,–
CN1Cc2ccccc2C(c2cccc3ccsc23)C1 (racemic) (as salt: salt),228 to 230,–,–
"Cc1noc(C)c1C1CN(C)Cc2ccccc21 (racemic) [4-(3,5-dimethyl-isoxazol-4-yl, reference compound]",–,1400,Ki (DAT): 128000 nM
"Cc1csc(C2CN(C)Cc3ccccc32)c1 (racemic) [4-methyl-thiophen-2-yl, reference compound]",–,3170,Ki (DAT): 2250 nM
"CN1Cc2cc(-c3cnccn3)ccc2C(c2cc3ccccc3s2)C1 (racemic) [Example 71, (±)-4-(benzo[b]thiophen-2-yl)-2-methyl-7-(pyrazin-2-yl)-1,2,3,4-tetrahydroisoquinoline]",–,–,inhibition at 0.1 µM (DAT): 33%; inhibition at 0.1 µM (SERT): 91%
"CN1Cc2cc(-c3cncnc3)ccc2C(c2cc3ccccc3s2)C1 (racemic) [Example 73, (±)-4-(benzo[b]thiophen-2-yl)-2-methyl-7-(pyrimidin-5-yl)-1,2,3,4-tetrahydroisoquinoline]",–,–,inhibition at 0.1 µM (DAT): 39%; inhibition at 0.1 µM (SERT): 93%
"Cc1noc(C)c1-c1ccc2c(c1)CN(C)CC2c1ccc2ccccc2c1 (racemic) [Example 142, (±)-7-(3,5-dimethyl-isoxazol-4-yl)-2-methyl-4-napthalen-2-yl-1,2,3,4-tetrahydroisoquinoline, maleate salt]",–,5.2,Ki (DAT): 104 nM
"CN1Cc2ccccc2C(c2cccs2)C1 (racemic) [thiophen-2-yl, reference compound]",–,2450,Ki (DAT): 5990 nM
"CN1Cc2cc(CN3CCOCC3)ccc2C(c2cc3ccccc3s2)C1 (single isomer, unassigned) (as salt: maleate)",80 to 82,–,–
"COc1cccc2cc(C3CN(C)Cc4ccccc43)oc12 (single isomer, unassigned) [Example 11]",–,26.8,Ki (DAT): > 300 nM

SMILES,melting point [°C],Ki (SERT) [nM],also measured
"COc1c(C2CN(C)Cc3ccccc32)ccc2sccc12 (single isomer, unassigned) [Example 82]",–,4.3,Ki (DAT): > 1000 nM
"CN1Cc2cc(-c3cccnn3)ccc2C(c2ccc3sccc3c2)C1 (single isomer, unassigned; (+)) (as salt: fumarate) [Example 97, (+)-4-benzo[b]thiophen-5-yl-2-methyl-7-pyridazin-3-yl-1,2,3,4-tetrahydroisoquinoline]",122 to 124,–,–
"CN1Cc2cc(-c3cccnn3)ccc2C(c2ccc3ccccc3c2)C1 (single isomer, unassigned; (+)) (as salt: maleate) [Example 137, (+)-2-methyl-4-napthalen-2-yl-7-pyridazin-3-yl-1,2,3,4-tetrahydroisoquinoline, maleate salt]",86 to 88,–,–
"CCN1Cc2ccccc2C(c2ccc3cn[nH]c3c2)C1 (single isomer, unassigned; (+)) [Example 130, (+)-4-(1H-Indazol-6-yl)-2-ethyl-1,2,3,4-tetrahydroisoquinoline, maleate salt]",–,22.5,Ki (DAT): 105 nM
"CN1Cc2ccccc2C(c2ccc3sncc3c2)C1.O=C(O)/C=C\C(=O)O (single isomer, unassigned; (+)) [Example 135, (+)-4-benzo[d]isothiazol-5-yl-2-methyl-1,2,3,4-tetrahydroisoquinoline, maleate salt]",145 to 147,10.4,Ki (DAT): 79.4 nM
"CN1Cc2ccccc2C(c2cc(Cl)c3[nH]ncc3c2)C1 (single isomer, unassigned; (-)) (as salt: maleate) [Example 125, (−)-4-(7-chloro-1H-indazol-5-yl)-2-methyl-1,2,3,4-tetrahydoisoquinoline, maleate salt]",104 to 110,–,–
"CN1Cc2ccccc2C(c2cc(Cl)c3[nH]ncc3c2)C1 (single isomer, unassigned; (-)) [Example 125, (−)-4-(7-chloro-1H-indazol-5-yl)-2-methyl-1,2,3,4-tetrahydoisoquinoline, maleate salt]",–,21.3,Ki (DAT): 11.5 nM
"Cc1cccc2c1C(c1ccc3ccccc3c1)CN(C)C2 (stereo not shown) [Example 56, 2,5-dimethyl-4-(naphthalen-2-yl)-1,2,3,4-tetrahydroisoquinoline]",–,3.4,–
CN1Cc2ccccc2C(c2ccc3sncc3c2)C1.O=C(O)/C=C\C(=O)O (stereo not drawn) [Example 135 (−)-enantiomer],127 to 129,–,–
CN1Cc2cc(-c3ncccn3)ccc2C(c2ccc3ccccc3c2)C1.O=C(O)/C=C\C(=O)O (stereo not drawn) [Example 140 (−)-enantiomer],86 to 88,–,–
CN1Cc2cc(-c3ncccn3)ccc2C(c2ccc3ccccc3c2)C1.O=C(O)/C=C\C(=O)O (stereo not shown) [Example 140],84 to 85,–,–
CN1Cc2c(N)cccc2C(c2ccccc2)C1 (stereo not shown) [Nomifensine],–,–,biological activity in the tetrabenazine in vivo assay [1]: potent biological activity
CN1Cc2c(N)cccc2C(c2ccccc2)C1 (stereo not shown) [Nomifensine®],–,–,serious side effect of long term administration [2]: fatal immune hemolytic anemia
COC(=O)C(c1ccccc1)C1CCCCN1 (stereo not shown) [Ritalin],–,–,biological activity in the tetrabenazine in vivo assay [1]: potent activity
CNCC[C@@H](Oc1ccccc1C)c1ccccc1 [atomoxetine],–,–,activity at the dopamine transporter (dopamine transporter): little or no activity
